Where a name gives a salt, the structure may show the parent alone.
How the values were obtained:
HCT116 [1] = details: 72 h
Procedure, shortened: (§1)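 After seeding at 250 cells per well in 1536-well plates, HCT116 cells were given 5 h to attach. CellTiter-Glo luminescence, scaled to 0% for vehicle and -100% for positive control, was pattern-corrected. Fitting with a four-parameter Hill model produced IC50 and maximal efficacy.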

HCT116 [2] = assay: efficacy (maximum % inhibition of viability vs DMSO); higher = more cytotoxic; details: 72 h
Procedure, shortened: as §1

| Compound | IC50 cell viability (HCT116 [1]; ICRF193 0 nM) | IC50 cell viability (HCT116 [1]; ICRF193 200 nM) | efficacy (HCT116 [2]; ICRF193 0 nM) | efficacy (HCT116 [2]; ICRF193 200 nM) |
| --- | --- | --- | --- | --- |
| CCOC(=O)[C@@H](N)Cc1ccc(-c2cc(O[C@H](c3ccc(Cl)cc3-n3ccc(C)n3)C(F)(F)F)nc(N)n2)cc1 [LX1606 (Hippurate)] | 11.6 µM | 16.4 µM | 64.7% | 102% |
| CCOC(=O)C1=C(C)NC(C)=C(C(=O)OCC)C1c1ccccc1/C=C/C(=O)OC(C)(C)C [Lacidipine] | 18.3 µM | 20.6 µM | 94% | 108% |
| CS(=O)(=O)CCNCc1ccc(-c2ccc3ncnc(Nc4ccc(OCc5cccc(F)c5)c(Cl)c4)c3c2)o1 [Lapatinib] | 16.4 µM | 20.6 µM | 106% | 110% |
| Cc1oncc1C(=O)Nc1ccc(C(F)(F)F)cc1 [Leflunomide] | 20.6 µM | 13 µM | 57.6% | 55.8% |
| COC(=O)C1=C(C)NC(COC(N)=O)=C(C(=O)OC(C)C)C1c1cccc(Cl)c1Cl (stereo unspecified) [Lemildipine] | 23.1 µM | 25.9 µM | 76.8% | 76.7% |
| COC(=O)C1=C(C)NC(C)=C(C(=O)OC(C)(C)CN(C)CCC(c2ccccc2)c2ccccc2)C1c1cccc([N+](=O)[O-])c1 (stereo unspecified) [Lercanidipine hydrochloride] | 20.6 µM | 16.4 µM | 102% | 89.3% |
| C=CCN1CC[C@]23CCCC[C@H]2[C@H]1Cc1ccc(O)cc13 [Levallorphan] | > 45.8 µM | 25.9 µM |  | 42.1% |
| CCCC[C@H](C)C[C@H](O)/C=C/[C@H]1[C@H](O)CC(=O)[C@@H]1CCCC/C=C/C(=O)O [Limaprost] | 20.6 µM | 16.4 µM | 81.4% | 77.6% |
| COc1ccc(CN2CCN(C(c3ccc(F)cc3)c3ccc(F)cc3)CC2)c(OC)c1OC [Lomerizine dihydrochloride] | 20.6 µM | 23.1 µM | 130% | 104% |
| O=C(NC1CCN(CCCCC2(C(=O)NCC(F)(F)F)c3ccccc3-c3ccccc32)CC1)c1ccccc1-c1ccc(C(F)(F)F)cc1 [Lomitapide] | 16.4 µM | 20.6 µM | 117% | 115% |
| CN(C)C(=O)C(CCN1CCC(O)(c2ccc(Cl)cc2)CC1)(c1ccccc1)c1ccccc1 [Loperamide hydrochloride] | 14.6 µM | 18.3 µM | 59.4% | 54.9% |
| Cc1cccc(C)c1OCC(=O)N[C@@H](Cc1ccccc1)[C@@H](O)C[C@H](Cc1ccccc1)NC(=O)[C@H](C(C)C)N1CCCNC1=O [Lopinavir] | 18.3 µM | 29.1 µM | 50.2% | 73.7% |
| CC[C@H](C)C(=O)O[C@H]1C[C@@H](C)C=C2C=C[C@H](C)[C@H](CC[C@@H]3C[C@@H](O)CC(=O)O3)[C@H]21 [Lovastatin] | > 45.8 µM | 20.6 µM |  | 46.5% |
| O=C(NC(=O)c1c(F)cccc1F)Nc1cc(Cl)c(OC(F)(F)C(F)C(F)(F)F)cc1Cl (stereo unspecified) [Lufenuron] | > 45.8 µM | 18.3 µM |  | 41.2% |
| N#C/C(=C1/SC[C@@H](c2ccc(Cl)cc2Cl)S1)n1ccnc1 [Luliconazole] | > 45.8 µM | 20.6 µM |  | 44.9% |
| CCCCN(CCCC)CC(O)c1cc(Cl)cc2c1-c1ccc(Cl)cc1/C2=C/c1ccc(Cl)cc1 (stereo unspecified) [Lumefantrine] | 23.1 µM | 18.3 µM | 120% | 113% |
| O=C1[C@@H]2[C@H]3CC[C@H](C3)[C@@H]2C(=O)N1C[C@@H]1CCCC[C@H]1CN1CCN(c2nsc3ccccc23)CC1 [Lurasidone (Hydrochloride)] | > 45.8 µM | 29.1 µM |  | 46.3% |
| NCCCC[C@H](NC(=O)[C@@H]1CCCN1C(=O)[C@@H]1CSSC[C@H](N)C(=O)N[C@@H](Cc2ccc(O)cc2)C(=O)N[C@@H](Cc2ccccc2)C(=O)N[C@@H](CCC(N)=O)C(=O)N[C@@H](CC(N)=O)C(=O)N1)C(=O)NCC(N)=O [Lypressin] | > 45.8 µM | 29.1 µM |  | 51.6% |
| CN1CCc2c(c3ccccc3n2Cc2ccccc2)C1 [MEBHYDROLIN] | > 45.8 µM | 11.6 µM |  | 41.4% |
| NC(=O)c1cccc2cn(-c3ccc([C@@H]4CCCNC4)cc3)nc12 [MK-4827] | 29.1 µM | 18.3 µM | 72.9% | 114% |
| C=C[C@@H]1C[C@]1(NC(=O)[C@@H]1C[C@@H]2CN1C(=O)[C@H](C(C)(C)C)NC(=O)O[C@@H]1C[C@H]1CCCCCc1nc3ccc(OC)cc3nc1O2)C(=O)NS(=O)(=O)C1CC1 [MK-5172] | 29.1 µM | 18.3 µM | 91.6% | 81.1% |
| CC(C)C[C@H](NC(=O)CNC(=O)c1cc(Cl)ccc1Cl)B1OC(=O)C(CC(=O)O)(CC(=O)O)O1 [MLN9708] | 0.13 µM | 0.103 µM | 96.2% | 94.4% |
| CN(C)c1ccc(C(=C2C=CC(=[N+](C)C)C=C2)c2ccccc2)cc1 [Malachite green oxalate] | 0.183 µM | 0.231 µM | 98.5% | 96% |
| COC(=O)C1=C(C)NC(C)=C(C(=O)OCCN2CCN(C(c3ccccc3)c3ccccc3)CC2)C1c1cccc([N+](=O)[O-])c1 (stereo unspecified) [Manidipine] | 18.3 µM | 18.3 µM | 92% | 90.1% |
| CNCCCC12CCC(c3ccccc31)c1ccccc12 [Maprotiline hydrochloride] | > 45.8 µM | 29.1 µM |  | 86.5% |

| Compound | IC50 cell viability (HCT116 [1]; ICRF193 0 nM) | IC50 cell viability (HCT116 [1]; ICRF193 200 nM) | efficacy (HCT116 [2]; ICRF193 0 nM) | efficacy (HCT116 [2]; ICRF193 200 nM) |
| --- | --- | --- | --- | --- |
| COc1ccc(C(C)(C)C)cc1CN[C@H]1C2CCN(CC2)[C@H]1C(c1ccccc1)c1ccccc1 [Maropitant] | 18.3 µM | 18.3 µM | 60.3% | 96% |
| Cc1ccc(NC(=O)c2ccc(CN3CCN(C)CC3)cc2)cc1Nc1nc(-c2cccnc2)cs1 [Masitinib] | 11.6 µM | 20.6 µM | 43.6% | 66.8% |
| NS(=O)(=O)c1ccc(-n2nc(C(F)(F)F)cc2-c2ccc(F)cc2)cc1 [Mavacoxib] | 29.1 µM | 20.6 µM | 56.9% | 51.5% |
| COC(=O)Nc1nc2cc(C(=O)c3ccccc3)ccc2[nH]1 [Mebendazole] | 20.6 µM | 0.92 µM | 55.3% | 61.9% |
| Cc1cccc(CN2CCN(C(c3ccccc3)c3ccc(Cl)cc3)CC2)c1 (stereo unspecified) [Meclizine hydrochloride] | > 45.8 µM | 29.1 µM |  | 49.1% |
| C=C1c2c(Cl)ccc(O)c2C(=O)C2=C(O)[C@]3(O)C(=O)C(C(N)=O)=C(O)[C@@H](N(C)C)[C@@H]3[C@@H](O)[C@H]12.O=C(O)c1cc(S(=O)(=O)O)ccc1O [Meclocycline sulfosalicylate] | 20.6 µM | 29.1 µM | 54.3% | 64% |
| OC(c1cc(C(F)(F)F)nc2c(C(F)(F)F)cccc12)C1CCCCN1 (stereo unspecified) [Mefloquine hydrochloride] | 23.1 µM | 23.1 µM | 116% | 98% |
| C=C1C[C@H]2[C@@H]3C=C(C)C4=CC(=O)CC[C@]4(C)[C@H]3CC[C@]2(C)[C@@]1(OC(C)=O)C(C)=O [Melengestrol acetate] | > 45.8 µM | 18.3 µM |  | 40.9% |
| CN(C)CCC=C1c2ccccc2C(C)(C)c2ccccc21 [Melitracen hydrochloride] | > 45.8 µM | 29.1 µM |  | 61.4% |
| Cc1cc(O)c2ccccc2c1O [Menadiol] | > 45.8 µM | 20.6 µM |  | 41.5% |
| CC1(S(=O)(=O)O)CC(=O)c2ccccc2C1=O (stereo unspecified) [Menadione sodium bisulfite] | 18.3 µM | 29.1 µM | 102% | 40.7% |
| c1ccc2c(c1)Sc1ccccc1N2CC1CN2CCC1CC2 (stereo unspecified) [Mequitazine] | 16.4 µM | 20.6 µM | 103% | 96.8% |
| CN1CCC(CN2c3ccccc3Sc3ccccc32)C1 (stereo unspecified) [Methdilazine hydrochloride] | > 45.8 µM | 18.3 µM |  | 53.5% |
| CN(Cc1cnc2nc(N)nc(N)c2n1)c1ccc(C(=O)N[C@@H](CCC(=O)O)C(=O)O)cc1 [Methotrexate] | 0.146 µM | 0.146 µM | 91.8% | 93.9% |
| COc1ccc2c(c1)N(C[C@H](C)CN(C)C)c1ccccc1S2 [Methotrimeprazine maleat salt] | > 45.8 µM | 23.1 µM |  | 50.8% |
| CO[C@H]1[C@@H](O)C[C@H](O[C@H]2[C@@H](O)C[C@H](O[C@H]3[C@@H](O)C[C@H](O[C@H]4CC[C@@]5(C)[C@H](CC[C@@H]6[C@@H]5C[C@@H](O)[C@]5(C)[C@@H](C7=CC(=O)OC7)CC[C@]65O)C4)O[C@@H]3C)O[C@@H]2C)O[C@@H]1C [Methyldigoxin] | 0.0891 µM | 0.1 µM | 90.7% | 86.6% |
| CN(C)c1ccc2nc3ccc(=[N+](C)C)cc-3sc2c1 [Methylene blue] | 3.66 µM | 2.31 µM | 109% | 91.6% |
| CN(C)c1ccc(C(=C2C=CC(=[N+](C)C)C=C2)c2ccc(N(C)C)cc2)cc1 [Methylrosaniline chloride] | 0.326 µM | 0.164 µM | 89.5% | 90.4% |
| CN1CCCC(CC2c3ccccc3Sc3ccccc32)C1 (stereo unspecified) [Metixene hydrochloride] | 20.6 µM | 25.9 µM | 109% | 94.6% |
| CN1CCN2c3ccccc3Cc3ccccc3C2C1 (stereo unspecified) [Mianserin] | 23.1 µM | 29.1 µM | 51% | 62% |
| CCCCCCCCCCCCCCCCCCNC(=O)OC1CCN(C(=O)OC[C@H](COC(=O)N(Cc2cccc[n+]2CC)C(=O)c2ccccc2OC)OC)CC1 [Minopafant] | 11.6 µM | 16.4 µM | 111% | 124% |
| CCCCCCCCCCCCCC[n+]1ccc(C)cc1 [Miripirium chloride] | 11.6 µM | 8.2 µM | 104% | 70% |
| O=C1c2c(O)ccc(O)c2C(=O)c2c(NCCNCCO)ccc(NCCNCCO)c21 [Mitoxantrone] | 2.31 µM | 2.06 µM | 90.7% | 96.4% |
| C[C@@H]1C[C@H]2[C@@H]3CCC4=CC(=O)C=C[C@]4(C)[C@@]3(Cl)[C@@H](O)C[C@]2(C)[C@@]1(OC(=O)c1ccco1)C(=O)CCl [Mometasone furoate] | 18.3 µM | 20.6 µM | 102% | 97.9% |
| O=C(CCCN1CCN(c2ccc(F)cc2)CC1)NC1c2ccccc2CSc2ccccc21 (stereo unspecified) [Monatepil] | 23.1 µM | 23.1 µM | 123% | 93.7% |

From the supplement of paper PMC12137928
